Assay results taken from the supplement of paper PMC11208160.

experiment: recombinant UMI read abundance after kanamycin selection (control-corrected) (log10(CPM+1)); higher = more efficient recombination; extreme values may be limits of the assay; sequences stand for … in AGTGCAGAGAAAATCGGCCAGTTTTCTCTGCCTGCAGTCCGCATGCCGTGGGACCCCTTGGGTTCTAACCTGTTGCCTAGATTTATGCAGCGGACTGCCTTTCTCCCAAAGTGATAAACCGG…AGGTTGGTTTCACT; site = the 11-nt donor
In short: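 Sequenced counts of recombinant UMIs were turned into CPM, averaged across replicates and scaled with control-derived factors. The reported figure is log10(CPM+1). Those UMIs, each 12 nt long, tagged donor and donor-binding-loop pairs on a plasmid with a promoterless kanamycin gene, screened as a pool in Escherichia coli with IPTG (0.07 mM) plus kanamycin or without selection.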
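Also: IS621 bridge recombinase in Escherichia coli cells against a fixed T5 target plasmid.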

“CCCTTCTCATGGACCGGTTTTCCCGGTAATCCGTATTTGGG (site CCCTTCTCTCA)” and “CCCTTCTCATGGACCGGTTTTCCCGGTAATCCGTATTTGGG (site CCCTTCTCTCC)” are within 0.2 log units of each other in “recombinant UMI read abundance (log10)” value: 0.0118 for the first, 0.0281 for the second.

“CCCTTCTCATGGACCGGTTTTCCCGGTAATCCGTATTTGGG (site CCCTTCTCTCG)” and “CCCTTCTCATGGACCGGTTTTCCCGGTAATCCGTATTTGGG (site CCCTTCTCTCT)” are within 0.2 log units of each other in “recombinant UMI read abundance (log10)” value: 0.0129 for the first, 0.0297 for the second.

“CCCTTCTCATGGACCGGTTTTCCCGGTAATCCGTATTTGGG (site CCCTTCTCTGC)” and “CCCTTCTCATGGACCGGTTTTCCCGGTAATCCGTATTTGGG (site CCCTTCTCTTC)” are within 0.2 log units of each other in “recombinant UMI read abundance (log10)” value: 0 for the first, 0.00791 for the second.

“CCCTTCTCATGGACCGGTTTTCCCGGTAATCCGTATTTGGG (site CCCTTGTCTCC)” and “CCCTTCTCATGGACCGGTTTTCCCGGTAATCCGTATTTGGG (site CCCTTTTCTCC)” are within 0.2 log units of each other in “recombinant UMI read abundance (log10)” value: 0.0418 for the first, 0.00608 for the second.

“CCCTTCTCATGGACCGGTTTTCCCGGTAATCCGTATTTGGG (site CCGTTCTCTCC)” and “CCCTTCTCATGGACCGGTTTTCCCGGTAATCCGTATTTGGG (site CCTTTCTCTCC)” are within 0.2 log units of each other in “recombinant UMI read abundance (log10)” value: 0 for the first, 0.00766 for the second.

“CCCTTCTCATGGACCGGTTTTCCCGGTAATCCGTATTTGGG (site CGCTTCTCTCC)” and “CCCTTCTCATGGACCGGTTTTCCCGGTAATCCGTATTTGGG (site CTCTTCTCTCC)” are within 0.2 log units of each other in “recombinant UMI read abundance (log10)” value: 0 for the first, 0.0147 for the second.

“CCCTTCTCATGGACCGGTTTTCCCGGTAATCCGTATTTGGG (site GCCTTCTCTCC)” and “CCCTTCTCATGGACCGGTTTTCCCGGTAATCCGTATTTGGG (site TCCTTCTCTCC)” are within 0.2 log units of each other in “recombinant UMI read abundance (log10)” value: 0.00558 for the first, 0.0111 for the second.

Compared with “CCCTTCTCATGGACCGGTTTTCCCGGTAATCCGTATTTGTG (site CCCTTCTCTCA)”, “CCCTTCTCATGGACCGGTTTTCCCGGTAATCCGTATTTGTG (site CCCTTCTCTCC)” is lower in “recombinant UMI read abundance (log10)” value: 0.583 for the first, 0.0231 for the second.

First: CCCTTCTCATGGACCGGTTTTCCCGGTAATCCGTATTTGTG (site CCCTTCTCTCG)
Second: CCCTTCTCATGGACCGGTTTTCCCGGTAATCCGTATTTGTG (site CCCTTCTCTCT)
The “recombinant UMI read abundance (log10)” value of the first is higher: 0.995 for the first, 0.00643 for the second.

“CCCTTTTCATGGACCGGTTTTCCCGGTAATCCGTATTTGGG (site CCCTTATCTCC)” and “CCCTTTTCATGGACCGGTTTTCCCGGTAATCCGTATTTGGG (site CCCTTCTCTCC)” are within 0.2 log units of each other in “recombinant UMI read abundance (log10)” value: 0.00602 for the first, 0.0124 for the second.

“CCCTTTTCATGGACCGGTTTTCCCGGTAATCCGTATTTGGG (site CCCTTGTCTCC)” and “CCCTTTTCATGGACCGGTTTTCCCGGTAATCCGTATTTGGG (site CCCTTTTCTCC)” are within 0.2 log units of each other in “recombinant UMI read abundance (log10)” value: 0.0108 for the first, 0 for the second.

“CCGAAGCCATGGACCGGTTTTCCCGGTAATCCGTATTTGGG (site ACGAAGCCTCC)” and “CCGAAGCCATGGACCGGTTTTCCCGGTAATCCGTATTTGGG (site CCGAAGCCTCC)” are within 0.2 log units of each other in “recombinant UMI read abundance (log10)” value: 0.0168 for the first, 0.0077 for the second.

“CCGAAGCCATGGACCGGTTTTCCCGGTAATCCGTATTTGGG (site GCGAAGCCTCC)” and “CCGAAGCCATGGACCGGTTTTCCCGGTAATCCGTATTTGGG (site TCGAAGCCTCC)” are within 0.2 log units of each other in “recombinant UMI read abundance (log10)” value: 0.0226 for the first, 0.0139 for the second.

Going from “CCGAGTTCATGGACCGGTTTTCCCGGTAATCCGTATTTGTT (site CCGAGTTCTAA)” to “CCGCCCGCATGGACCGGTTTTCCCGGTAATCCGTATTTGTA (site CCGCCCGCTTA)”, the “recombinant UMI read abundance (log10)” value rises from 0.501 to 1.02.

“CCGGAACCATGGACCGGTTTTCCCGGTAATCCGTATTTGAT (site CAGGAACCTAT)” and “CCGGAACCATGGACCGGTTTTCCCGGTAATCCGTATTTGAT (site CCGGAACCTAT)” are the same in “recombinant UMI read abundance (log10)” value: 0 for the first, 0 for the second.

“CCGGAACCATGGACCGGTTTTCCCGGTAATCCGTATTTGAT (site CGGGAACCTAT)” and “CCGGAACCATGGACCGGTTTTCCCGGTAATCCGTATTTGAT (site CTGGAACCTAT)” are within 0.2 log units of each other in “recombinant UMI read abundance (log10)” value: 0 for the first, 0.00208 for the second.

“CCGGGACCATGGACCGGTTTTCCCGGTAATCCGTATTTGAG (site CCGGGACCTCT)” and “CCGGGCCCATGGACCGGTTTTCCCGGTAATCCGTATTTGTA (site CCGGGCCCTTA)” are within 0.2 log units of each other in “recombinant UMI read abundance (log10)” value: 0 for the first, 0.0269 for the second.

Going from “CCGTAATCATGGACCGGTTTTCCCGGTAATCCGTATTTGCG (site CCGTAATCTCG)” to “CCGTATACATGGACCGGTTTTCCCGGTAATCCGTATTTGAT (site CCGTATACTAT)”, the “recombinant UMI read abundance (log10)” value falls from 1.7 to 0.449.

Going from “CCGTCATCATGGACCGGTTTTCCCGGTAATCCGTATTTGAT (site CCGTCATCTAT)” to “CCGTCTGCATGGACCGGTTTTCCCGGTAATCCGTATTTGCT (site CCGTCTGCTAG)”, the “recombinant UMI read abundance (log10)” value rises from 0.00671 to 0.241.

“CCGTGTACATGGACCGGTTTTCCCGGTAATCCGTATTTGCT (site CCGTATACTAG)” and “CCGTGTACATGGACCGGTTTTCCCGGTAATCCGTATTTGCT (site CCGTCTACTAG)” are within 0.2 log units of each other in “recombinant UMI read abundance (log10)” value: 0.0403 for the first, 0.00869 for the second.

Compared with “CCGTGTACATGGACCGGTTTTCCCGGTAATCCGTATTTGCT (site CCGTGTACTAG)”, “CCGTGTACATGGACCGGTTTTCCCGGTAATCCGTATTTGCT (site CCGTTTACTAG)” is lower in “recombinant UMI read abundance (log10)” value: 0.439 for the first, 0 for the second.

Compared with “CCGTGTGCATGGACCGGTTTTCCCGGTAATCCGTATTTGAC (site CCGTGTGCTGT)”, “CCGTTAACATGGACCGGTTTTCCCGGTAATCCGTATTTGTG (site CCGTTAACTCA)” is lower in “recombinant UMI read abundance (log10)” value: 1 for the first, 0.0455 for the second.

“CCGTTAACATGGACCGGTTTTCCCGGTAATCCGTATTTGTG (site CCGTTACCTCA)” and “CCGTTAACATGGACCGGTTTTCCCGGTAATCCGTATTTGTG (site CCGTTAGCTCA)” are within 0.2 log units of each other in “recombinant UMI read abundance (log10)” value: 0.0226 for the first, 0.182 for the second.

“CCGTTAACATGGACCGGTTTTCCCGGTAATCCGTATTTGTG (site CCGTTATCTCA)” and “CCGTTAGCATGGACCGGTTTTCCCGGTAATCCGTATTTGGG (site CCGTTAGCTCA)” are within 0.2 log units of each other in “recombinant UMI read abundance (log10)” value: 0.00955 for the first, 0.0109 for the second.

“CCGTTAGCATGGACCGGTTTTCCCGGTAATCCGTATTTGGG (site CCGTTAGCTCC)” and “CCGTTAGCATGGACCGGTTTTCCCGGTAATCCGTATTTGGG (site CCGTTAGCTCG)” are within 0.2 log units of each other in “recombinant UMI read abundance (log10)” value: 0.00956 for the first, 0 for the second.

“CCGTTAGCATGGACCGGTTTTCCCGGTAATCCGTATTTGGG (site CCGTTAGCTCT)” and “CCGTTTACATGGACCGGTTTTCCCGGTAATCCGTATTTGCT (site ACGTTTACTAG)” are the same in “recombinant UMI read abundance (log10)” value: 0 for the first, 0 for the second.

“CCGTTTACATGGACCGGTTTTCCCGGTAATCCGTATTTGCT (site CAGTTTACTAG)” and “CCGTTTACATGGACCGGTTTTCCCGGTAATCCGTATTTGCT (site CCATTTACTAG)” are the same in “recombinant UMI read abundance (log10)” value: 0 for the first, 0 for the second.

“CCGTTTACATGGACCGGTTTTCCCGGTAATCCGTATTTGCT (site CCCTTTACTAG)” and “CCGTTTACATGGACCGGTTTTCCCGGTAATCCGTATTTGCT (site CCGATTACTAG)” are the same in “recombinant UMI read abundance (log10)” value: 0 for the first, 0 for the second.

“CCGTTTACATGGACCGGTTTTCCCGGTAATCCGTATTTGCT (site CCGCTTACTAG)” and “CCGTTTACATGGACCGGTTTTCCCGGTAATCCGTATTTGCT (site CCGGTTACTAG)” are the same in “recombinant UMI read abundance (log10)” value: 0 for the first, 0 for the second.

“CCGTTTACATGGACCGGTTTTCCCGGTAATCCGTATTTGCT (site CCGTATACTAG)” and “CCGTTTACATGGACCGGTTTTCCCGGTAATCCGTATTTGCT (site CCGTCTACTAG)” are the same in “recombinant UMI read abundance (log10)” value: 0 for the first, 0 for the second.

“CCGTTTACATGGACCGGTTTTCCCGGTAATCCGTATTTGCT (site CCGTGTACTAG)” and “CCGTTTACATGGACCGGTTTTCCCGGTAATCCGTATTTGCT (site CCGTTAACTAG)” are the same in “recombinant UMI read abundance (log10)” value: 0 for the first, 0 for the second.

“CCGTTTACATGGACCGGTTTTCCCGGTAATCCGTATTTGCT (site CCGTTCACTAG)” and “CCGTTTACATGGACCGGTTTTCCCGGTAATCCGTATTTGCT (site CCGTTGACTAG)” are within 0.2 log units of each other in “recombinant UMI read abundance (log10)” value: 0.00422 for the first, 0 for the second.

“CCGTTTACATGGACCGGTTTTCCCGGTAATCCGTATTTGCT (site CCGTTTACTAA)” and “CCGTTTACATGGACCGGTTTTCCCGGTAATCCGTATTTGCT (site CCGTTTACTAC)” are the same in “recombinant UMI read abundance (log10)” value: 0 for the first, 0 for the second.

“CCGTTTACATGGACCGGTTTTCCCGGTAATCCGTATTTGCT (site CCGTTTACTAG)” and “CCGTTTACATGGACCGGTTTTCCCGGTAATCCGTATTTGCT (site CCGTTTACTAT)” are the same in “recombinant UMI read abundance (log10)” value: 0 for the first, 0 for the second.

“CCGTTTACATGGACCGGTTTTCCCGGTAATCCGTATTTGCT (site CCGTTTACTCG)” and “CCGTTTACATGGACCGGTTTTCCCGGTAATCCGTATTTGCT (site CCGTTTACTGG)” are the same in “recombinant UMI read abundance (log10)” value: 0 for the first, 0 for the second.

“CCGTTTACATGGACCGGTTTTCCCGGTAATCCGTATTTGCT (site CCGTTTACTTG)” and “CCGTTTACATGGACCGGTTTTCCCGGTAATCCGTATTTGCT (site CCGTTTCCTAG)” are the same in “recombinant UMI read abundance (log10)” value: 0 for the first, 0 for the second.

“CCGTTTACATGGACCGGTTTTCCCGGTAATCCGTATTTGCT (site CCGTTTGCTAG)” and “CCGTTTACATGGACCGGTTTTCCCGGTAATCCGTATTTGCT (site CCGTTTTCTAG)” are within 0.2 log units of each other in “recombinant UMI read abundance (log10)” value: 0.00881 for the first, 0 for the second.

In the case of “CCGTTTACATGGACCGGTTTTCCCGGTAATCCGTATTTGCT (site CCTTTTACTAG)”, the “recombinant UMI read abundance (log10)” value is reported as 0.
